Source: PubChem BioAssay AID1259407 (Chemical Carcinogenesis Research Information System (CCRIS), 2018)
The source made the active and inactive calls. How the calls were made is not given here.

Test system: CCRIS mutagenicity, Ames/micronucleus/aberration tests
Assay: CCRIS mutagenicity studies
[1] = Test System: AMES SALMONELLA TYPHIMURIUM, Strain/Indicator: TA98, Metabolic Activation: NONE, Method: STANDARD PLATE
[2] = Test System: AMES SALMONELLA TYPHIMURIUM, Strain/Indicator: TA98, Metabolic Activation: RAT, LIVER, S-9, AROCLOR 1254, Method: STANDARD PLATE
[3] = Test System: AMES SALMONELLA TYPHIMURIUM, Strain/Indicator: TA100, Metabolic Activation: NONE, Method: STANDARD PLATE
[4] = Test System: AMES SALMONELLA TYPHIMURIUM, Strain/Indicator: TA100, Metabolic Activation: RAT, LIVER, S-9, AROCLOR 1254, Method: STANDARD PLATE
[5] = Test System: AMES SALMONELLA TYPHIMURIUM, Strain/Indicator: TA104, Metabolic Activation: NONE, Method: STANDARD PLATE
[6] = Test System: AMES SALMONELLA TYPHIMURIUM, Strain/Indicator: TA104, Metabolic Activation: RAT, LIVER, S-9, AROCLOR 1254, Method: STANDARD PLATE
[7] = Test System: AMES SALMONELLA TYPHIMURIUM, Strain/Indicator: TA1535, Metabolic Activation: NONE, Method: STANDARD PLATE

Measured: mutagenic call

ClC=C(Cl)Cl
active: Test System: AMES SALMONELLA TYPHIMURIUM, Strain/Indicator: TA97, Metabolic Activation: NONE, Method: STANDARD PLATE active; positive | Test System: AMES SALMONELLA TYPHIMURIUM, Strain/Indicator: TA97, Metabolic Activation: RAT, LIVER, S-9, AROCLOR 1254, Method: STANDARD PLATE active; positive | [2] active; positive | Test System: AMES SALMONELLA TYPHIMURIUM, Strain/Indicator: TA100, Metabolic Activation: MOUSE, LIVER, S-9, AROCLOR 1254, Method: DESICCATOR active; positive | Test System: AMES SALMONELLA TYPHIMURIUM, Strain/Indicator: TA1535, Metabolic Activation: NONE, Method: DESICCATOR active; positive | Test System: AMES SALMONELLA TYPHIMURIUM, Strain/Indicator: TA1535, Metabolic Activation: RAT, LIVER, S-9, AROCLOR 1254, Method: DESICCATOR active; positive | Test System: MOUSE LYMPHOMA, Strain/Indicator: L5178Y (TK+/TK-), Metabolic Activation: RAT, LIVER, S-9, AROCLOR 1254, Method: SUSPENSION/PLATE active; positive
inactive: End Point: IN VITRO CHROMOSOMAL ABERRATIONS, Test System: CHINESE HAMSTER LUNG FIBROBLAST CELLS (CHL/IU), Metabolic Activation: NONE inactive; negative | End Point: IN VITRO CHROMOSOMAL ABERRATIONS, Test System: CHINESE HAMSTER LUNG FIBROBLAST CELLS (CHL/IU), Metabolic Activation: RAT, LIVER, S-9, PHENOBARBITAL AND 5,6-BENZOFLAVONE inactive; negative | End Point: IN VITRO CHROMOSOMAL ABERRATIONS, Test System: CHINESE HAMSTER OVARY CELLS, Metabolic Activation: NONE inactive; negative; precipitation occurred at all doses | End Point: IN VITRO CHROMOSOMAL ABERRATIONS, Test System: CHINESE HAMSTER OVARY CELLS, Metabolic Activation: RAT, LIVER, S-9, AROCLOR 1254 inactive; negative; precipitation occurred at all doses | End Point: IN VITRO MICRONUCLEUS, Test System: V79 CELLS, Metabolic Activation: NONE inactive; negative | End Point: IN VITRO MICRONUCLEUS, Test System: V79 CELLS, Metabolic Activation: RAT, LIVER, S-9, AROCLOR 1254 inactive; negative | Test System: AMES SALMONELLA TYPHIMURIUM, Strain/Indicator: TA98, Metabolic Activation: HAMSTER, LIVER, S-9, AROCLOR 1254, Method: DESICCATOR inactive; negative | Test System: AMES SALMONELLA TYPHIMURIUM, Strain/Indicator: TA98, Metabolic Activation: HAMSTER, LIVER, S-9, AROCLOR 1254, Method: PREINCUBATION inactive; negative | Test System: AMES SALMONELLA TYPHIMURIUM, Strain/Indicator: TA98, Metabolic Activation: NONE, Method: DESICCATOR inactive; negative | Test System: AMES SALMONELLA TYPHIMURIUM, Strain/Indicator: TA98, Metabolic Activation: NONE, Method: PREINCUBATION inactive; negative | [1] inactive; negative | Test System: AMES SALMONELLA TYPHIMURIUM, Strain/Indicator: TA98, Metabolic Activation: RAT, LIVER, S-9, AROCLOR 1254, Method: DESICCATOR inactive; negative | Test System: AMES SALMONELLA TYPHIMURIUM, Strain/Indicator: TA98, Metabolic Activation: RAT, LIVER, S-9, AROCLOR 1254, Method: PREINCUBATION inactive; negative | Test System: AMES SALMONELLA TYPHIMURIUM, Strain/Indicator: TA100, Metabolic Activation: HAMSTER, LIVER, S-9, AROCLOR 1254, Method: DESICCATOR inactive; negative | Test System: AMES SALMONELLA TYPHIMURIUM, Strain/Indicator: TA100, Metabolic Activation: HAMSTER, LIVER, S-9, AROCLOR 1254, Method: PREINCUBATION inactive; negative | Test System: AMES SALMONELLA TYPHIMURIUM, Strain/Indicator: TA100, Metabolic Activation: NONE, Method: DESICCATOR inactive; negative | Test System: AMES SALMONELLA TYPHIMURIUM, Strain/Indicator: TA100, Metabolic Activation: NONE, Method: PREINCUBATION inactive; negative | [3] inactive; negative | Test System: AMES SALMONELLA TYPHIMURIUM, Strain/Indicator: TA100, Metabolic Activation: NONE, Method: VAPOR CHAMBER inactive; negative | Test System: AMES SALMONELLA TYPHIMURIUM, Strain/Indicator: TA100, Metabolic Activation: RAT, LIVER, S-9, AROCLOR 1254, Method: DESICCATOR inactive; negative | Test System: AMES SALMONELLA TYPHIMURIUM, Strain/Indicator: TA100, Metabolic Activation: RAT, LIVER, S-9, AROCLOR 1254, Method: PREINCUBATION inactive; negative | [4] inactive; negative | Test System: AMES SALMONELLA TYPHIMURIUM, Strain/Indicator: TA102, Metabolic Activation: S-9, Method: STANDARD PLATE inactive; negative | [5] inactive; negative | [6] inactive; negative | Test System: AMES SALMONELLA TYPHIMURIUM, Strain/Indicator: TA1535, Metabolic Activation: HAMSTER, LIVER, S-9, AROCLOR 1254, Method: PREINCUBATION inactive; negative | Test System: AMES SALMONELLA TYPHIMURIUM, Strain/Indicator: TA1535, Metabolic Activation: NONE, Method: PREINCUBATION inactive; negative | Test System: AMES SALMONELLA TYPHIMURIUM, Strain/Indicator: TA1535, Metabolic Activation: NONE, Method: VAPOR CHAMBER inactive; negative | Test System: AMES SALMONELLA TYPHIMURIUM, Strain/Indicator: TA1535, Metabolic Activation: RAT, LIVER, S-9, AROCLOR 1254, Method: PREINCUBATION inactive; negative | Test System: AMES SALMONELLA TYPHIMURIUM, Strain/Indicator: TA1537, Metabolic Activation: HAMSTER, LIVER, S-9, AROCLOR 1254, Method: PREINCUBATION inactive; negative | Test System: AMES SALMONELLA TYPHIMURIUM, Strain/Indicator: TA1537, Metabolic Activation: NONE, Method: PREINCUBATION inactive; negative | Test System: AMES SALMONELLA TYPHIMURIUM, Strain/Indicator: TA1537, Metabolic Activation: RAT, LIVER, S-9, AROCLOR 1254, Method: PREINCUBATION inactive; negative | Test System: AMES SALMONELLA TYPHIMURIUM, Strain/Indicator: TA2638, Metabolic Activation: S-9, Method: STANDARD PLATE inactive; negative | Test System: E. COLI, Strain/Indicator: WP2 (PKM101), Metabolic Activation: S-9, Method: STANDARD PLATE inactive; negative | Test System: E. COLI, Strain/Indicator: WP2 UVRA (PKM101), Metabolic Activation: S-9, Method: STANDARD PLATE inactive; negative | Test System: MOUSE LYMPHOMA, Strain/Indicator: L5178Y (TK+/TK-), Metabolic Activation: NONE, Method: SUSPENSION/PLATE inactive; negative

ClCCCCl
inactive: Test System: AMES SALMONELLA TYPHIMURIUM, Strain/Indicator: GSTT1, Metabolic Activation: RAT, LIVER, S-9, AROCLOR 1254, Method: STANDARD PLATE inactive; negative | Test System: AMES SALMONELLA TYPHIMURIUM, Strain/Indicator: RSJ100, Metabolic Activation: NONE, Method: STANDARD PLATE inactive; negative | [1] inactive; negative | [2] inactive; negative | [3] inactive; negative | [4] inactive; negative | [5] inactive; negative | [6] inactive; negative | [7] inactive; negative | Test System: AMES SALMONELLA TYPHIMURIUM, Strain/Indicator: TA1535, Metabolic Activation: RAT, LIVER, S-9, AROCLOR 1254, Method: STANDARD PLATE inactive; negative

CCN(CCCl)CCCNc1c2ccccc2nc2ccccc12
inactive: [7] inactive; negative
active: [1] active; positive | [3] active; positive | Test System: AMES SALMONELLA TYPHIMURIUM, Strain/Indicator: TA1536, Metabolic Activation: NONE, Method: STANDARD PLATE active; positive | Test System: AMES SALMONELLA TYPHIMURIUM, Strain/Indicator: TA1537, Metabolic Activation: NONE, Method: STANDARD PLATE active; positive | Test System: AMES SALMONELLA TYPHIMURIUM, Strain/Indicator: TA1538, Metabolic Activation: NONE, Method: STANDARD PLATE active; positive
